{"source": "patent US9993494B2", "about": "“Compositions and methods for treating fibrotic disease” (eFFECTOR Therapeutics, Inc., priority 2014, dated 2018)", "system": "normal human lung fibroblasts", "assay": "Ribosomal profiling: translational efficiency in TGFβ-treated fibroblasts", "format": "cell-based", "conditions": "TGFβ-treated fibroblasts", "method": "Ribosomal profiling allows for measurement of changes in transcription and translation on a genome-wide basis accompanying TGFβ-dependent transformation of fibroblasts to myofibroblasts. Ribosomal profiles of the TGFβ-treated fibroblasts from Example 1 (about 6×10^6 cells/10 cm plate) were prepared and analyzed for changes in translational efficiencies with respect to potential disease-associated cellular changes accompanying this TGFβ-induced transformation.\nBriefly, cells were washed with cold PBS supplemented with cycloheximide and lysed with 1× mammalian cell lysis buffer for 10 minutes on ice. Lysates were clarified by centrifugation for 10 minutes at 14,000 rpm and supernatants were collected. Cell lysates were processed to generate ribosomal protected fragments and total mRNA according to the instructions included with the ARTseq Ribosome Profiling Kit (Illumina, San Diego, Calif.). Sequencing of total RNA (RNA) and of ribosome-protected fragments of RNA (RPF) was carried out using RNA-Seq methodology according to the manufacturer's instructions (Illumina). To analyze the ribosomal profiles, RNA-Seq reads were processed with tools from the FASTX-Toolkit (fastq_quality_trimmer, fastx_clipper and fastx_trimmer). Unprocessed and processed reads were evaluated for a variety of quality measures using FastQC, and processed reads were mapped to the human genome using TopHat (see, e.g., Trapnell et al., Bioinformatics 25:1105, 2009). Gene-by-gene assessment of the number of fragments strictly and uniquely mapping to the coding region of each gene was conducted using HTSeq-count, a component of the HTSeq package. […] Genes with low counts in either RPF or RNA were excluded from differential analyses. Pathway and network analyses of differential data were conducted using Ingenuity Pathway Analysis (IPA).", "data": [{"smiles": "Cc1cc(C2CCCCC2)n(O)c(=O)c1.NCCO", "note": "[CPX, ciclopirox oloamine]", "values": [{"measurement": "renormalizing the translational profile of DNASE1L1", "setting": "ENSG00000013563", "value": "− (− = <0.9)"}, {"measurement": "renormalizing the translational profile of KITLG", "setting": "ENSG00000049130", "value": "− (− = <0.9)"}, {"measurement": "renormalizing the translational profile of ADAMTS6", "setting": "ENSG00000049192", "value": "− (− = <0.9)"}, {"measurement": "renormalizing the translational profile of LETMD1", "setting": "ENSG00000050426", "value": "− (− = <0.9)"}, {"measurement": "renormalizing the translational profile of PLEKHA5", "setting": "ENSG00000052126", "value": "− (− = <0.9)"}, {"measurement": "renormalizing the translational profile of EIF4B", "setting": "ENSG00000063046", "value": "− (− = <0.9)"}, {"measurement": "renormalizing the translational profile of RPL18", "setting": "ENSG00000063177", "value": "− (− = <0.9)"}, {"measurement": "renormalizing the translational profile of HIPK2", "setting": "ENSG00000064393", "value": "− (− = <0.9)"}, {"measurement": "renormalizing the translational profile of ASPM", "setting": "ENSG00000066279", "value": "− (− = <0.9)"}, {"measurement": "renormalizing the translational profile of RASSF1", "setting": "ENSG00000068028", "value": "− (− = <0.9)"}, {"measurement": "renormalizing the translational profile of PABPC1", "setting": "ENSG00000070756", "value": "− (− = <0.9)"}, {"measurement": "renormalizing the translational profile of RPL31", "setting": "ENSG00000071082", "value": "− (− = <0.9)"}, {"measurement": "renormalizing the translational profile of PLD1", "setting": "ENSG00000075651", "value": "− (− = <0.9)"}, {"measurement": "renormalizing the translational profile of EDN1", "setting": "ENSG00000078401", "value": "− (− = <0.9)"}, {"measurement": "renormalizing the translational profile of AURKA", "setting": "ENSG00000087586", "value": "− (− = <0.9)"}, {"measurement": "renormalizing the translational profile of EPB41L1", "setting": "ENSG00000088367", "value": "− (− = <0.9)"}, {"measurement": "renormalizing the translational profile of RPL6", "setting": "ENSG00000089009", "value": "− (− = <0.9)"}, {"measurement": "renormalizing the translational profile of P2RX7", "setting": "ENSG00000089041", "value": "++ (++ = 1.5 to 2.0)"}, {"measurement": "renormalizing the translational profile of KDM2B", "setting": "ENSG00000089094", "value": "− (− = <0.9)"}, {"measurement": "renormalizing the translational profile of RPLP0", "setting": "ENSG00000089157", "value": "− (− = <0.9)"}, {"measurement": "renormalizing the translational profile of IGBP1", "setting": "ENSG00000089289", "value": "− (− = <0.9)"}, {"measurement": "renormalizing the translational profile of IRAK3", "setting": "ENSG00000090376", "value": "− (− = <0.9)"}, {"measurement": "renormalizing the translational profile of PABPC4", "setting": "ENSG00000090621", "value": "− (− = <0.9)"}, {"measurement": "renormalizing the translational profile of FMO2", "setting": "ENSG00000094963", "value": "− (− = <0.9)"}, {"measurement": "renormalizing the translational profile of ACOT7", "setting": "ENSG00000097021", "value": "− (− = <0.9)"}, {"measurement": "renormalizing the translational profile of ATP5D", "setting": "ENSG00000099624", "value": "− (− = <0.9)"}, {"measurement": "renormalizing the translational profile of LGALS1", "setting": "ENSG00000100097", "value": "− (− = <0.9)"}, {"measurement": "renormalizing the translational profile of EIF3L", "setting": "ENSG00000100129", "value": "− (− = <0.9)"}, {"measurement": "renormalizing the translational profile of RPL3", "setting": "ENSG00000100316", "value": "− (− = <0.9)"}, {"measurement": "renormalizing the translational profile of CEP192", "setting": "ENSG00000101639", "value": "− (− = <0.9)"}, {"measurement": "renormalizing the translational profile of AMMECR1", "setting": "ENSG00000101935", "value": "− (− = <0.9)"}, {"measurement": "renormalizing the translational profile of PLP2", "setting": "ENSG00000102007", "value": "− (− = <0.9)"}, {"measurement": "renormalizing the translational profile of EIF3E", "setting": "ENSG00000104408", "value": "− (− = <0.9)"}, {"measurement": "renormalizing the translational profile of EEF1D", "setting": "ENSG00000104529", "value": "− (− = <0.9)"}, {"measurement": "renormalizing the translational profile of C19orf53", "setting": "ENSG00000104979", "value": "− (− = <0.9)"}, {"measurement": "renormalizing the translational profile of GLTSCR2", "setting": "ENSG00000105373", "value": "+ (+ = 0.9 to 1.5)"}, {"measurement": "renormalizing the translational profile of RAB3D", "setting": "ENSG00000105514", "value": "− (− = <0.9)"}, {"measurement": "renormalizing the translational profile of RPL18A", "setting": "ENSG00000105640", "value": "− (− = <0.9)"}, {"measurement": "renormalizing the translational profile of COMP", "setting": "ENSG00000105664", "value": "− (− = <0.9)"}, {"measurement": "renormalizing the translational profile of GLCCI1", "setting": "ENSG00000106415", "value": "− (− = <0.9)"}, {"measurement": "renormalizing the translational profile of CORO2A", "setting": "ENSG00000106789", "value": "− (− = <0.9)"}, {"measurement": "renormalizing the translational profile of GDF10", "setting": "ENSG00000107623", "value": "+ (+ = 0.9 to 1.5)"}, {"measurement": "renormalizing the translational profile of RPL28", "setting": "ENSG00000108107", "value": "− (− = <0.9)"}, {"measurement": "renormalizing the translational profile of RPL19", "setting": "ENSG00000108298", "value": "− (− = <0.9)"}, {"measurement": "renormalizing the translational profile of RASD1", "setting": "ENSG00000108551", "value": "− (− = <0.9)"}, {"measurement": "renormalizing the translational profile of NAT9", "setting": "ENSG00000109065", "value": "− (− = <0.9)"}, {"measurement": "renormalizing the translational profile of RPL34", "setting": "ENSG00000109475", "value": "− (− = <0.9)"}, {"measurement": "renormalizing the translational profile of CRYAB", "setting": "ENSG00000109846", "value": "− (− = <0.9)"}, {"measurement": "renormalizing the translational profile of GAPDH", "setting": "ENSG00000111640", "value": "− (− = <0.9)"}, {"measurement": "renormalizing the translational profile of C12orf57", "setting": "ENSG00000111678", "value": "− (− = <0.9)"}, {"measurement": "renormalizing the translational profile of HBEGF", "setting": "ENSG00000113070", "value": "− (− = <0.9)"}, {"measurement": "renormalizing the translational profile of RPL24", "setting": "ENSG00000114391", "value": "− (− = <0.9)"}, {"measurement": "renormalizing the translational profile of EEF1B2", "setting": "ENSG00000114942", "value": "− (− = <0.9)"}, {"measurement": "renormalizing the translational profile of IFIH1", "setting": "ENSG00000115267", "value": "− (− = <0.9)"}, {"measurement": "renormalizing the translational profile of DPH5", "setting": "ENSG00000117543", "value": "− (− = <0.9)"}, {"measurement": "renormalizing the translational profile of PPL", "setting": "ENSG00000118898", "value": "− (− = <0.9)"}, {"measurement": "renormalizing the translational profile of PLEKHG1", "setting": "ENSG00000120278", "value": "+ (+ = 0.9 to 1.5)"}, {"measurement": "renormalizing the translational profile of LIAS", "setting": "ENSG00000121897", "value": "− (− = <0.9)"}, {"measurement": "renormalizing the translational profile of GPSM2", "setting": "ENSG00000121957", "value": "− (− = <0.9)"}, {"measurement": "renormalizing the translational profile of RPL21", "setting": "ENSG00000122026", "value": "− (− = <0.9)"}, {"measurement": "renormalizing the translational profile of RPL5", "setting": "ENSG00000122406", "value": "− (− = <0.9)"}, {"measurement": "renormalizing the translational profile of INHBA", "setting": "ENSG00000122641", "value": "− (− = <0.9)"}, {"measurement": "renormalizing the translational profile of CIT", "setting": "ENSG00000122966", "value": "− (− = <0.9)"}, {"measurement": "renormalizing the translational profile of RPL23", "setting": "ENSG00000125691", "value": "− (− = <0.9)"}, {"measurement": "renormalizing the translational profile of LAMP5", "setting": "ENSG00000125869", "value": "+ (+ = 0.9 to 1.5)"}]}]}
